Assay results from the NIST ThermoML archive (doi:10.1021/je501054c).
Where “and” joins values, the source holds several entries; their conditions need not be identical. Equal entries are not always repeated. Numbers after ± are expanded uncertainties.

Experiment: mn = molality of the nth substance listed, in mol/kg
Conditions: 100 kPa, Liquid; for viscosity: Capillary tube (Ostwald / Ubbelohde) method; for mass density: Vibrating tube method

Q: Which viscosity (298.15 K, m1 = 0.0396) does the source give for `C(=NCCN=Cc1ccccn1)c1ccccn1` [N,N'-bis(2-pyridinylmethylene)-1,2-ethanediamine] + CC#N here?
A: 0.3511 ± 0.0074 mPa·s

Q: And the viscosity (298.15 K, m1 = 0.0397)?
A: 0.359 ± 0.0076 mPa·s

Q: And the viscosity (298.15 K, m1 = 0.0412)?
A: 0.352 ± 0.0075 mPa·s and 0.368 ± 0.0078 mPa·s

Q: What about the viscosity (298.15 K, m1 = 0.0707) of the same compound?
A: 0.372 ± 0.0079 mPa·s

Q: What about the viscosity (298.15 K, m1 = 0.076) of the same compound?
A: 0.3695 ± 0.0078 mPa·s

Q: And the viscosity (298.15 K, m1 = 0.0794)?
A: 0.367 ± 0.0078 mPa·s

Q: And the viscosity (298.15 K, m1 = 0.085)?
A: 0.357 ± 0.0076 mPa·s

Q: And the viscosity (298.15 K, m1 = 0.1109)?
A: 0.381 ± 0.0081 mPa·s

Q: What about the viscosity (298.15 K, m1 = 0.1136) of the same compound?
A: 0.368 ± 0.0078 mPa·s

Q: And the viscosity (298.15 K, m1 = 0.1159)?
A: 0.374 ± 0.0079 mPa·s

Q: And the viscosity (298.15 K, m1 = 0.1172)?
A: 0.374 ± 0.0079 mPa·s

Q: And the viscosity (298.15 K, m1 = 0.1441)?
A: 0.397 ± 0.0084 mPa·s

Q: What about the viscosity (298.15 K, m1 = 0.1487) of the same compound?
A: 0.395 ± 0.0083 mPa·s

Q: And the viscosity (298.15 K, m1 = 0.1539)?
A: 0.381 ± 0.0081 mPa·s

Q: What about the viscosity (298.15 K, m1 = 0.1655) of the same compound?
A: 0.375 ± 0.0079 mPa·s

Q: And the mass density (298.15 K, m1 = 0.0397)?
A: 778.8 ± 3.9 kg/m3

Q: And the mass density (298.15 K, m1 = 0.0412)?
A: 778.98 ± 3.9 kg/m3 and 778.99 ± 3.9 kg/m3

Q: And the mass density (298.15 K, m1 = 0.0707)?
A: 781 ± 3.9 kg/m3

Q: And the mass density (298.15 K, m1 = 0.076)?
A: 781.24 ± 3.9 kg/m3

Q: What about the mass density (298.15 K, m1 = 0.0794) of the same compound?
A: 781.36 ± 3.9 kg/m3

Q: And the mass density (298.15 K, m1 = 0.085)?
A: 781.2 ± 3.9 kg/m3

Q: And the mass density (298.15 K, m1 = 0.1109)?
A: 783.49 ± 3.9 kg/m3

Q: And the mass density (298.15 K, m1 = 0.1136)?
A: 783.49 ± 3.9 kg/m3

Q: What about the mass density (298.15 K, m1 = 0.1159) of the same compound?
A: 783.49 ± 3.9 kg/m3

Q: And the mass density (298.15 K, m1 = 0.1172)?
A: 783.63 ± 3.9 kg/m3

Q: And the mass density (298.15 K, m1 = 0.1441)?
A: 785.8 ± 3.9 kg/m3

Q: And the mass density (298.15 K, m1 = 0.1487)?
A: 786.71 ± 3.9 kg/m3

Q: What about the mass density (298.15 K, m1 = 0.1539) of the same compound?
A: 785.86 ± 3.9 kg/m3

Q: And the mass density (298.15 K, m1 = 0.1655)?
A: 785.87 ± 3.9 kg/m3

Q: What about the mass density (298.15 K, m1 = 0.396) of the same compound?
A: 779.08 ± 3.9 kg/m3

Q: What about the mass density (303.15 K, m1 = 0.0397) of the same compound?
A: 770.6 ± 3.9 kg/m3

Q: And the mass density (303.15 K, m1 = 0.0412)?
A: 773.9 ± 3.9 kg/m3 and 773.55 ± 3.9 kg/m3

Q: And the mass density (303.15 K, m1 = 0.0707)?
A: 775.97 ± 3.9 kg/m3

Q: What about the mass density (303.15 K, m1 = 0.076) of the same compound?
A: 772.52 ± 3.9 kg/m3

Q: What about the mass density (303.15 K, m1 = 0.0794) of the same compound?
A: 775.79 ± 3.9 kg/m3

Q: And the mass density (303.15 K, m1 = 0.085)?
A: 776.45 ± 3.9 kg/m3

Q: And the mass density (303.15 K, m1 = 0.1109)?
A: 778.35 ± 3.9 kg/m3

Q: And the mass density (303.15 K, m1 = 0.1136)?
A: 778.33 ± 3.9 kg/m3

Q: What about the mass density (303.15 K, m1 = 0.1159) of the same compound?
A: 775.25 ± 3.9 kg/m3

Q: And the mass density (303.15 K, m1 = 0.1172)?
A: 777.74 ± 3.9 kg/m3

Q: What about the mass density (303.15 K, m1 = 0.1441) of the same compound?
A: 780.11 ± 3.9 kg/m3

Q: What about the mass density (303.15 K, m1 = 0.1487) of the same compound?
A: 778.7 ± 3.9 kg/m3

Q: What about the mass density (303.15 K, m1 = 0.1539) of the same compound?
A: 780.33 ± 3.9 kg/m3

Q: And the mass density (303.15 K, m1 = 0.1655)?
A: 780.09 ± 3.9 kg/m3

Q: And the mass density (303.15 K, m1 = 0.396)?
A: 773.62 ± 3.9 kg/m3

Q: What about the mass density (308.15 K, m1 = 0.0397) of the same compound?
A: 762.7 ± 3.8 kg/m3

Q: And the mass density (308.15 K, m1 = 0.0412)?
A: 765.55 ± 3.8 kg/m3 and 766.66 ± 3.8 kg/m3

Q: What about the mass density (308.15 K, m1 = 0.0707) of the same compound?
A: 767.82 ± 3.8 kg/m3

Q: And the mass density (308.15 K, m1 = 0.076)?
A: 764.1 ± 3.8 kg/m3

Q: And the mass density (308.15 K, m1 = 0.0794)?
A: 769.83 ± 3.9 kg/m3

Q: What about the mass density (308.15 K, m1 = 0.085) of the same compound?
A: 769.8 ± 3.9 kg/m3

Q: What about the mass density (308.15 K, m1 = 0.1109) of the same compound?
A: 771.54 ± 3.9 kg/m3

Q: And the mass density (308.15 K, m1 = 0.1136)?
A: 771.48 ± 3.9 kg/m3

Q: And the mass density (308.15 K, m1 = 0.1159)?
A: 767.32 ± 3.8 kg/m3

Q: What about the mass density (308.15 K, m1 = 0.1172) of the same compound?
A: 772.75 ± 3.9 kg/m3

Q: And the mass density (308.15 K, m1 = 0.1441)?
A: 774.3 ± 3.9 kg/m3

Q: What about the mass density (308.15 K, m1 = 0.1487) of the same compound?
A: 769.46 ± 3.9 kg/m3

Q: What about the mass density (308.15 K, m1 = 0.1539) of the same compound?
A: 775.54 ± 3.9 kg/m3

Q: And the mass density (308.15 K, m1 = 0.1655)?
A: 774.28 ± 3.9 kg/m3

Q: What about the mass density (308.15 K, m1 = 0.396) of the same compound?
A: 766.62 ± 3.8 kg/m3

Q: What about the mass density (313.15 K, m1 = 0.0397) of the same compound?
A: 754.02 ± 3.8 kg/m3

Q: What about the mass density (313.15 K, m1 = 0.0412) of the same compound?
A: 759.53 ± 3.8 kg/m3 and 758.9 ± 3.8 kg/m3

Q: And the mass density (313.15 K, m1 = 0.0707)?
A: 761.2 ± 3.8 kg/m3

Q: What about the mass density (313.15 K, m1 = 0.076) of the same compound?
A: 756.48 ± 3.8 kg/m3

Q: What about the mass density (313.15 K, m1 = 0.0794) of the same compound?
A: 761.42 ± 3.8 kg/m3

Q: And the mass density (313.15 K, m1 = 0.085)?
A: 762.5 ± 3.8 kg/m3

Q: And the mass density (313.15 K, m1 = 0.1109)?
A: 764.87 ± 3.8 kg/m3

Q: And the mass density (313.15 K, m1 = 0.1136)?
A: 764.85 ± 3.8 kg/m3

Q: What about the mass density (313.15 K, m1 = 0.1159) of the same compound?
A: 759.62 ± 3.8 kg/m3

Q: What about the mass density (313.15 K, m1 = 0.1172) of the same compound?
A: 767.66 ± 3.8 kg/m3

Q: What about the mass density (313.15 K, m1 = 0.1441) of the same compound?
A: 767.8 ± 3.8 kg/m3

Q: What about the mass density (313.15 K, m1 = 0.1487) of the same compound?
A: 761.79 ± 3.8 kg/m3

Q: And the mass density (313.15 K, m1 = 0.1539)?
A: 770.79 ± 3.9 kg/m3

Q: And the mass density (313.15 K, m1 = 0.1655)?
A: 767.87 ± 3.8 kg/m3

Q: And the mass density (313.15 K, m1 = 0.396)?
A: 760.23 ± 3.8 kg/m3
